Laboratory results taken from US20220133747A1, “ESTROGEN RECEPTOR INHIBITORS AND USES THEROF” (The Regents of the University of California, priority 2018, published 2022).
“Also recorded” adds a separate entry of the source.

Experiments:
4T1 tumors = assay: 4T1 tumor progression in syngeneic BALB/c mice; assay type: in vivo; conditions: SERD128 50 mg/kg oral gavage, fulvestrant 5 mg/mouse subcutaneous once a week, anti-PD-L1 100 μg every third day, 10-12 days
Method: Ovariec-tomized 6-wk-old female BALC/c mice supplemented with E2 pellets (0.36 mg/60 day release pellet) were implanted SC with 2.5×10^5 4T1 cells. After tumors reached approx. 200 mm3, mice were randomized and treated with control vehicle (CON), 100 μg of anti-PD-L1 (antibody clone 10F.9G2, BioXCell) Q3 days (PD-L1), 50 mg/kg SERD128 by oral gavage (SERD128) or combined antibody+SERD (PD-L1+SERD128). Tumors were measured Q3 days, with tumor volume calculated as V=(W(2)×L)/2), with mean+SE (*P<0.05, **P<0.01 vs CON).
FIGS. 23A-23C show estrogen effects on ERα negative tumor growth in vitro and in vivo. […] Female 6-wk-old BALB/c mice, either ovariectomized (ovx) or sham-operated (intact), were inoculated s.c. with 2×10^5 4T1 TNBC cells. Tumor growth was then assessed every 3 days, with tumor volume calculated as V=(l×w×w)/2. ****P≤0.0001. […] 4T1 cells were grown in the presence (+E2) or absence (−E2) of estradiol-17β and increasing concentrations of SERD128 at 10 nM (128-10), 100 nM (128-100) or 1000 nM (128-1000). Cell proliferation was assessed using the Incucyte S3 Live-Cell Analysis system with pictures obtained every 4-6 hours. […] Ovariectomized 6-week-old female syngeneic BALB/c mice were primed with estradiol-17β slow-release pellets prior to tumor cell inoculation. After three days, 4T1 cells were injected in the 4th mammary fat pad (2×10^5 cells). After tumors reached ˜200 mm^3 mice were randomized and treated with control vehicle (CON), […] of anti-PD-L1 antibody every 3rd day (PD-L1 Ab), 50 mg/kg SERD128 via oral gavage (SERD128), and combinations of antibody and SERD128 (SERD128+PD-L1 Ab). Tumors were measured every 3 days, and tumor volume was calculated as V=(W(2)×L)/2). **P<0,01, ****P<0.0001 as compared to control group. n=11-12.
In further studies to determine the effects of antiestrogen treatment alone or in combination with anti-PD-L1 antibody on murine tumor progression in vivo, ovariectomized 6-week-old female syngeneic BALB/c mice were used (Jackson Laboratory). […] Tumors were measured every 3-4 days, and tumor volume was calculated as above. […]

[1] = Screen of SERD candidates in antitumor assays, comparison with fulvestrant; conditions: a number of antitumor assays
Description: We designed, synthesized and screened more than 65 new SERD candidates, all of which have the general structure shown in 1′, namely 11β-aryloxy estradiols, with a basic amine positioned at the 4-position of the aryl ring (FIG. 16). The basic amine is connected to the aryl unit either directly or via a spacer that varies from 3-6 atoms. […] We note that this new class of steroid-like SERDs lack the prototypical side chain (as in fulvestrant) widely used to design other drugs with ERα antagonism, but these SERD candidates generate a full antagonist profile and induce significant ERα down-regulation, likely similar to significant ‘indirect’ receptor antagonism as reported in previous independent studies of 11β-substitutions in ERα [51, 52] and other structural changes as in an independent report.

STAT3 = assay: Phosphorylated STAT3 in G-MDSC subpopulations, flow cytometry; assay type: cell-based, human; conditions: 1 μM in normal medium with GM-CSF and IL6, 6 days
Method: Bone marrow cells from three breast cancer patients were incubated with GM-CSF and IL6 in the following groups: normal medium (contains estradiol) in the presence of vehicle (CON), 1 μM fulvestrant (FULV) or 1 μM S128. After 6 days, cells were subjected to flow cytometry using an antibody directed to phosphorylated STAT3 (p-STAT; 1).
FIGS. 22A-22B show expansion of MDSCs is dependent on estrogen signaling and reversed by antiestrogens. […] Retrospectively-collected BM cells from de-identified BC patients were purified by established methods including red blood cell lysis and Ficoll gradients and then incubated with GM-CSF and IL-6 for 6 days in either regular RPMI medium+15% FBS (NM) (contains estrogens), NM with antiestrogens (FULV or SERD128) or in phenol red-free medium with 15% charcoal coated-dextran treated FBS (EFM) (estrogen-depleted) with or without the addition of 100 nM estradiol-17β (EFM+E2). […]
Human myeloid-derived suppressor cells were expanded from bone marrow (BM) specimens of BC patients after standard Ficoll gradient purification and red blood cell lysis. […] After 6 days of culture, cells were harvested, stained with a 14 antibody panel including anti-phospho-STAT3 (pSTAT3) and analyzed by flow cytometry with an LSRII with a 5 lasers (UV, violet, blue, green-yellow and red). […]

MCF-7 cells = assay: Cell proliferation assay, MCF-7 (MCF-7/PAR); assay type: cell-based, human; conditions: 10 nM with 2 nM estradiol-17β, 48 hr
MCF-7/HER2 cells = assay: Cell proliferation assay, MCF-7 with HER2-overexpression; assay type: cell-based, human; conditions: MCF-7/HER2, 10 nM with 2 nM estradiol-17β, 48 hr
T47D cells = assay: Cell proliferation assay, T47D; assay type: cell-based, human; conditions: 10 nM with 2 nM estradiol-17β, 48 hr

Compound	4T1 tumor progression (tumor volume) (4T1 tumors)	activity relative to fulvestrant [1]	p-STAT3 median fluorescence intensity in G-MDSC (STAT3)	p-STAT3 median fluorescence intensity in G-MDSC (STAT3; listed as S128)	cell proliferation (% of estradiol-treated controls) (MCF-7 cells)	cell proliferation (% of estradiol-treated controls) (MCF-7/HER2 cells)	4T1 tumor progression (tumor volume) (4T1 tumors; 50 mg/kg)	4T1 tumor progression (tumor volume) (4T1 tumors; listed as S128)	cell proliferation (% of estradiol-treated controls) (T47D cells)
C[C@]12CC[C@@H]3c4ccc(O)cc4C[C@@H](CCCCCCCCC[S+]([O-])CCCC(F)(F)C(F)(F)F)[C@H]3[C@@H]1CC[C@@H]2O (stereo partly drawn) [fulvestrant, reference compound]	effective in inhibition of 4T1 tumor growth in vivo								
C[C@]12C[C@H](Oc3ccc(N)c(C(F)(F)F)c3)[C@@H]3c4ccc(O)cc4CC[C@H]3[C@@H]1CC[C@@H]2O [SERD128, (8S,9S,11S,13S,14S,17S)-11-(4-Amino-3-(trifluoromethyl)phenoxy)-13-methyl-7,8,9,11,12,13,14,15,16,17-decahydro-6H-cyclopenta[a]phenanthrene-3,17-diol]		more potent than fulvestrant	blocks phosphorylation/activation of STAT3; also recorded: especially effective in blocking the phosphorylation and activation of STAT3	blocks phosphorylation/activation of STAT3; also recorded: inhibits the STAT signaling pathway	significantly blocked proliferation; also recorded: significantly inhibited; also recorded: antiproliferative action	significantly blocked proliferation; also recorded: antiproliferative action	inhibits breast cancer growth in vivo; also recorded: effective in inhibition of 4T1 tumor growth in vivo; also recorded: significant suppression of 4T1 tumor progression in vivo	elicits inhibition of 4T1 TNBC progression in vivo	significantly blocked proliferation; also recorded: significantly inhibited
